Measured values: patent US8377911B2, “Diuretics” (Merck Sharp & Dohme Corp., priority 2009, dated 2013)

Test system: Male beagle dogs
Assay: canine telemetry protocol, blood pressure reduction efficacy
Assay type: in vivo
Conditions: telemetered male beagle dogs, 3 mg/kg, oral gavage
Experimental: Compounds of the invention were evaluated for blood pressure reduction efficacy using the following canine telemetry protocol.
Male beagle dogs (approximately 1-3 years old) with a body weight of between 10 and 16 kg were surgically implanted with DSI radiotelemetry devices (model: TL11M2-D70-PCT). Briefly, under an inhalant anesthesia, isoflurane/oxygen mixture (1-3.5%/to effect), the body of the telemetry device was positioned and secured intra-abdominally. Subsequently, the arterial catheter of the telemetry device was passed subcutaneously to the inguinal area and introduced into the femoral artery and advanced to the level of the descending aorta. The catheter was secured with 2-0 silk ligatures. The muscle and underlying fascia was closed over the catheter using absorbable suture and the skin was closed using non-absorbable suture. The animals were allowed a minimum recovery period of 2 weeks between surgery and the evaluation of test compounds.
Compound evaluation consisted of a 3 day paradigm at a 3 mg/kg dose. On the first day, no compounds were administered during a 24 hour period of baseline data collection. Blood pressure and heart rate data were collected continuously for one minute periods at 10 minute intervals. On the days of compound administration half the animals received test article with the other half receiving the vehicle used for compound formulation. All test materials were administered by oral gavage in a volume of 1 mL/kg. Data are expressed either as raw values (mm Hg or beats per minute) or as the change from baseline (average value for about 12 hours in low activity period prior to dosing). Change is SBP (systolic blood pressure) and PP (pulse pressure) over time is shown below: […]

Compound	ΔPP (pulse pressure), change from baseline, 1-6 h [mm Hg]	ΔSBP (systolic blood pressure), change from baseline, 1-6 h [mm Hg]	ΔPP (pulse pressure), change from baseline, 6-12 h [mm Hg]	ΔSBP (systolic blood pressure), change from baseline, 6-12 h [mm Hg]	ΔPP (pulse pressure), change from baseline, 12-18 h [mm Hg]	ΔSBP (systolic blood pressure), change from baseline, 12-18 h [mm Hg]
CCCCON=[N+]([O-])N1CCC[C@H]1C(=O)Oc1c(C)ncc2c1CO[C@H]2c1ccc(Cl)cc1 (stereo in doubt) [Example 1, (3S)-3-(4-Chlorophenyl)-6-methyl-1,3-dihydrofuro[3,4-c]pyridin-7-yl 1-[(Z)-butoxy-NNO-azoxy]-L-prolinate]	−14.0	−15.4	−6.4	−6.2	−3.2	−0.6
Cc1ncc2c(c1OC(=O)[C@@H]1CCCN1[N+]([O-])=NOCC(C)C)CO[C@H]2c1ccc(Cl)cc1 (stereo in doubt) [Example 5, (3S)-3-(4-Chlorophenyl)-6-methyl-1,3-dihydrofuro[3,4-c]pyridin-7-yl 1-[(Z)-2-methylpropoxy-NNO-azoxy]-L-prolinate]	−3.6	−2.4	−1.7	−2.6	−2.6	−2.8
CCCC(C)ON=[N+]([O-])N1CCC[C@H]1C(=O)Oc1c(C)ncc2c1CO[C@H]2c1ccc(Cl)cc1 (stereo in doubt) [Example 9, (3S)-3-(4-Chlorophenyl)-6-methyl-1,3-dihydrofuro[3,4-c]pyridin-7-yl 1-[(Z)-pentan-2-yloxy-NNO-azoxy]-L-prolinate]	−10.6	−11.8	−5.2	−6.6	−2.5	1.0
CC[C@H](C)CON=[N+]([O-])N1CCC[C@H]1C(=O)Oc1c(C)ncc2c1CO[C@H]2c1ccc(Cl)cc1 (stereo in doubt) [Example 10, (3S)-3-(4-Chlorophenyl)-6-methyl-1,3-dihydrofuro[3,4-c]pyridin-7-yl 1-((Z)-{[(2S)-2-methylbutyl]oxy}-NNO-azoxy)-L-prolinate]	0.6	−5.3	3.4	−0.9	3.8	−3.1
Cc1ncc2c(c1OC(=O)[C@@H]1CCCN1[N+]([O-])=NOC1CCCCC1)CO[C@H]2c1ccc(Cl)cc1 (stereo in doubt) [Example 11, (3S)-3-(4-Chlorophenyl)-6-methyl-1,3-dihydrofuro[3,4-c]pyridin-7-yl 1-[(Z)-cyclohexyloxy-NNO-azoxy]-L-prolinate]	−6.9	−9.3	−2.3	−3.3	0.9	3.9
CCCCO/N=[N+](\[O-])N1CCC(C(=O)Oc2c(C)ncc3c2CO[C@H]3c2ccc(Cl)cc2)CC1 [Example 12, (3S)-3-(4-Chlorophenyl)-6-methyl-1,3-dihydrofuro[3,4-c]pyridin-7-yl 1-[(Z)-butoxy-NNO-azoxy]piperidine-4-carboxylate]	−12	−11	−5.8	−5.8	0.8	3.3
